According to patent publication US20250179047A1, “5-[7-(3,4-DIHYDRO-1H-ISOQUINOLINE-2-CARBONYL)-1,2,3,4 TETRAHYDROISOQUINOLIN-6-YL]-1H-PYRROLE-3-CARBOXAMIDE DERIVATIVES, PHARMACEUTICAL COMPOSITIONS CONTAINING THEM AND THEIR USES AS PRO-APOPTOTIC AGENTS” (LES LABORATOIRES SERVIER, priority 2022, published 2025):

Experiments:
BCL2 WT = BCL2 WT (Homo sapiens (Human), UniProt P10415); assay: TR-FRET competitive binding assay, BCL2 WT; settings: Ki determined from IC50, read-out: TR_FRET EKI_Bcl2 WT
Outline: (§1)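 Terbium-labelled N-terminal Halo-fusion BCL2 or BCLXL (E. coli), 0.5 nM, competed against fluorescein-labelled PUMA peptide (2 or 20 nM) for 2 h at 23° C in 50 mM Hepes pH 7.5, 150 mM NaCl, 5% DMSO. TR-FRET 520/495 nm ratio gave IC50 by four-parameter fit; Ki derived from IC50.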

KMS-12-PE Bcl-2 WT = assay: In vitro cytotoxicity CellTiter-Glo 48 h, KMS-12-PE Bcl-2 WT; format: cell-based; settings: Homo sapiens, KMS-12-PE, C50 = concentration needed to reach 50% of the cellular viability
Outline: (§2)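 KMS-12-PE myeloma cells were lentivirally transduced with wild-type or G101V-mutant Bcl-2 and sorted by TagRFP. They were exposed to compounds as 11-point dose responses for 48 h at 37 °C, 5% CO2. Viability was read by CellTiter-Glo ATP luminescence, and C50 was the concentration giving 50% viability.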

KMS-12-PE Bcl-2 G101V = assay: In vitro cytotoxicity CellTiter-Glo 48 h, KMS-12-PE Bcl-2 G101V; format: cell-based; settings: for Ratio (G101V/WT): C50 KMS-12-PE Bcl-2 G101V over C50 KMS-12-PE Bcl-2 WT; for IC50: Homo sapiens, KMS-12-PE, 48 h, CellTiter-Glo, C50 = concentration needed to reach 50% of the cellular viability
Outline: as §2

BCL2 F104I = BCL2 F104I (Homo sapiens, UniProt P10415, F104I); assay: TR-FRET competitive binding assay, BCL2 F104I; settings: Ki determined from IC50, read-out: TR_FRET EKI_Bcl2 F104I
Protocol: The relative binding potency of each compound was determined in a competitive binding assay using time resolved-fluorescence resonance energy transfer (TR-FRET). The method utilised a fluorescein labelled peptide derived from PUMA (5Flu-Ahx-[…]-NH2 wherein Ahx means 6-hexanoic acid monomer and the amino acid sequence is referred to as SEQ ID:01) which binds to a terbium labelled BCL2 or BCLXL protein. The degree of binding or corresponding compound inhibition can be quantified by the TR-FRET signal between the terbium donor and fluorescein acceptor.
The human BCL2_wild-type (also named BCL2_wt), BCL2_G101V mutant and BCLXL_wild-type were E. coli expressed as a N-terminal Halo-fusion proteins and singly labelled with Terbium on the Halo protein to afford the following amino acid sequences:
wherein the BCL2(1-207) sequence corresponds to UniProtKB® primary accession number P10415 and the BCLXL(2-196) sequence corresponds to UniProtKB® primary accession number Q07817-1.
The assay was performed in a 40 μL volume in white 384-standard well plates (Corning #3574). An 11-point serial dilution of each compound was prepared in DMSO and transferred directly to plate followed by addition of fluorescein labelled peptide and lastly protein. Final assay conditions were 0.5 nM BCL2_wt, BCL2_G101V, BCL2_D103Y, BCL2_F104I, BCL2_D111A or BCLXL_wt, 2 or 20 nM fluorescein labelled peptide, 50 mM Hepes pH 7.5, 150 mM NaCl, 0.5 mM TCEP (Tris(2-carboxyethyl)phosphine), 0.05% Tween 20, 5% DMSO. The mixture was incubated for 2 hours at 23° C.
TR-FRET measurements were performed on a Biotek Synergy Neo plate reader. TR-FRET was measured by excitation of the Terbium-donor at 340 nm and subsequent (delay time 100 μs) measurement of terbium and fluorescein emission at 495 nm and 520 nm, respectively, over a collection time of 300 μs. The TR-FRET signal was calculated as the emission-ratio at 520 nm over 495 nm.
The TR-FRET ratio readout for test compounds was normalized against 0% inhibition controls wells and 100% inhibition control wells. Test compound potency (IC50) was estimated by nonlinear regression using the sigmoidal dose-response (variable slope) using Xlfit 4 (IDBS, Guildford, Surrey, UK, model 205). Were the IC50 could not be determined the % inhibition at the highest tested concentration is given.
y=(A+((B−A)/(1+((C/x)^D))))
where y is the normalized TR-TRET ratio measurement for a given concentration of test compound, x is the concentration of test compound, A is the estimated efficacy (% inhibition) at infinite compound dilution, and B is the maximal efficacy (% inhibition). C is the IC50 value and D is the Hill slope coefficient.
The K1 values were determined from the IC50 values according to Cer et al, Nucleic Acids Res, 2009, July 1; 37 (WebServer issue): W441-W445.

BCL2 G101V [1] = assay: TR-FRET competitive binding assay, BCL2 G101V; set-up: species or system human; settings: ratio Ki BCL2 G101V / Ki BCL2 WT
Outline: as §1

BCL2 G101V [2] = biological target: BCL2 G101V (Homo sapiens, UniProt P10415, G101V); assay: TR-FRET competitive binding assay, BCL2 G101V; settings: BCL2 G101V; Ki determined from IC50; read-out: TR_FRET EKI_Bcl2 G101V
Outline: as §1

BCL2 D103Y = BCL2 D103Y (Homo sapiens, UniProt P10415, D103Y); assay: TR-FRET competitive binding assay, BCL2 D103Y; settings: Ki determined from IC50, read-out: TR_FRET EKI_Bcl2 D103Y
Outline: as §1

BCLXL WT = BCLXL WT (Homo sapiens (Human), UniProt Q07817); assay: TR-FRET competitive binding assay, BCLXL WT; settings: for Ki: BCLXL WT, Ki determined from IC50, read-out: TR_FRET EKI BclxL; for TR_FRET EKI BCLxL/WT selectivty ratio: ratio Ki BCLxL / Ki BCL2 WT
Chain of BCLXL WT (Q07817 other isoform, or with tags, fused parts or gaps): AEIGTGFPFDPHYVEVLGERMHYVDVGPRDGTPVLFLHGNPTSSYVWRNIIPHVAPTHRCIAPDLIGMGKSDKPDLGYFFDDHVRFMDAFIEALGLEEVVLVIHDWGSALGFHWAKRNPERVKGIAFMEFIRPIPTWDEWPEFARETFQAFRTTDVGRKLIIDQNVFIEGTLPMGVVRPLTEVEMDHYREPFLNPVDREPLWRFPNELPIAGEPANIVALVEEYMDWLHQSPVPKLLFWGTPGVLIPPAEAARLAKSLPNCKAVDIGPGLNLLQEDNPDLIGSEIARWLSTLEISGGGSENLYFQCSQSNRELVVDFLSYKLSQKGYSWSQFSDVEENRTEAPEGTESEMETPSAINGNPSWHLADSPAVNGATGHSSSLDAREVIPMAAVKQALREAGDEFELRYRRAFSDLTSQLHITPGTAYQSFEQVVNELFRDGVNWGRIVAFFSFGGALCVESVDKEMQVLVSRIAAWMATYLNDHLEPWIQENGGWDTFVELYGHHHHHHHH
Outline: as §1

| Compound | Ki (BCL2 WT) | Ki (BCL2 F104I) | TR_FRET EKI G101V/WT selectivty ratio (BCL2 G101V [1]) | Ki (BCL2 G101V [2]) | Ki (BCL2 D103Y) | Ki (BCLXL WT) | TR_FRET EKI BCLxL/WT selectivty ratio (BCLXL WT) | IC50 (KMS-12-PE Bcl-2 WT) | Ratio (G101V/WT) (KMS-12-PE Bcl-2 G101V) | IC50 (KMS-12-PE Bcl-2 G101V) |
| --- | --- | --- | --- | --- | --- | --- | --- | --- | --- | --- |
| Cc1c(N(C(=O)c2cc(-c3cc4c(cc3C(=O)N3Cc5ccccc5C[C@H]3C)CN(C(=O)Cc3cccc(N5CCN(C)CC5)c3)CC4)n(C)c2C)c2ccccc2)cc(C#N)n1C [Example 3, N-(5-cyano-1,2-dimethylpyrrol-3-yl)-1,2-dimethyl-5-(7-{[(3R)-3-methyl-3,4-dihydro-1H-isoquinolin-2-yl]carbonyl}-2-{2-[3-(4-methylpiperazin-1-yl)phenyl]acetyl}-3,4-dihydro-1H-isoquinolin-6-yl)-N-phenylpyrrole-3-carboxamide] | 0.03 nM | 1.65 nM | 11.7 | 0.4 nM | 0.12 nM | 1.3 nM | 43.3 | 0.0054 µM | 9.44 | 0.051 µM |
| Cc1c(C(=O)N(c2ccccc2)c2cc(C#N)n(CCO)c2C)cc(-c2cc3c(cc2C(=O)N2Cc4ccccc4C[C@H]2C)CN(C(=O)Cc2ccccc2)CC3)n1C [Example 4, N-[5-cyano-1-(2-hydroxyethyl)-2-methyl-pyrrol-3-yl]-1,2-dimethyl-5-[7-[(3R)-3-methyl-3,4-dihydro-1H-isoquinoline-2-carbonyl]-2-(2-phenylacetyl)-3,4-dihydro-1H-isoquinolin-6-yl]-N-phenyl-pyrrole-3-carboxamide] | 0.11 nM | 11.9 nM | 30.2 | 3.2 nM |  |  |  | 0.0048 µM | 25.9 | 0.124 µM |
| Cc1c(N(C(=O)c2cc(-c3cc4c(cc3C(=O)N3Cc5ccccc5C[C@H]3C)CN(C(=O)Cc3cccc(N5CCN6CCOC[C@@H]6C5)c3)CC4)n(C)c2C)c2ccccc2)cc(C#N)n1C [Example 8, 5-[2-(2-{3-[(9aS)-hexahydro-1H-piperazino[2,1-c]morpholin-8-yl]phenyl}acetyl)-7-{[(3R)-3-methyl-3,4-dihydro-1H-isoquinolin-2-yl]carbonyl}-3,4-dihydro-1H-isoquinolin-6-yl]-N-(5-cyano-1,2-dimethylpyrrol-3-yl)-1,2-dimethyl-N-phenylpyrrole-3-carboxamide] | 0.06 nM | 3.46 nM | 20.3 | 1.2 nM |  | 2.8 nM | 47.46 | 0.0026 µM | 27.6 | 0.0727 µM |

The next lines start with results.

| Ki (BCL2 WT) | Ki (BCL2 F104I) | TR_FRET EKI G101V/WT selectivty ratio (BCL2 G101V [1]) | Ki (BCL2 G101V [2]) | Ki (BCL2 D103Y) | Ki (BCLXL WT) | TR_FRET EKI BCLxL/WT selectivty ratio (BCLXL WT) | Compound | IC50 (KMS-12-PE Bcl-2 WT) | Ratio (G101V/WT) (KMS-12-PE Bcl-2 G101V) | IC50 (KMS-12-PE Bcl-2 G101V) |
| --- | --- | --- | --- | --- | --- | --- | --- | --- | --- | --- |
| 0.34 nM | 6.12 nM | 6.5 | 2.2 nM |  |  |  | Cc1cccc(CC(=O)N2CCc3cc(-c4cc(C(=O)N(c5ccc(O)cc5)c5cc(C#N)n(C)c5C)c(C)n4C)c(C(=O)N4Cc5ccccc5C[C@H]4C)cc3C2)c1 [Example 1, N-(5-cyano-1,2-dimethyl-1H-pyrrol-3-yl)-N-(4-hydroxyphenyl)-1,2-dimethyl-5-{7-[(3R)-3-methyl-1,2,3,4-tetrahydroisoquinoline-2-carbonyl]-2-[2-(3-methylphenyl)acetyl]-1,2,3,4-tetrahydroisoquinolin-6-yl}-1H-pyrrole-3-carboxamide] | 0.0087 µM | 8.92 | 0.0776 µM |
| 0.17 nM | 3.08 nM | 3.0 | 0.5 nM | 1.09 nM | 2.1 nM | 12.7 | Cc1c(N(C(=O)c2cc(-c3cc4c(cc3C(=O)N3Cc5ccccc5C[C@H]3C)CN(C(=O)COc3ccccc3)CC4)n(C)c2C)c2ccc(O)cc2)cc(C#N)n1C [Example 2, N-(5-cyano-1,2-dimethyl-1H-pyrrol-3-yl)-N-(4-hydroxyphenyl)-1,2-dimethyl-5-{7-[(3R)-3-methyl-1,2,3,4-tetrahydroisoquinoline-2-carbonyl]-2-(2-phenoxyacetyl)-1,2,3,4-tetrahydroisoquinolin-6-yl}-1H-pyrrole-3-carboxamide] | 0.004 µM | 5.04 | 0.02 µM |
| 0.18 nM | 4.45 nM | 7.3 | 1.3 nM |  |  |  | Cc1c(N(C(=O)c2cc(-c3cc4c(cc3C(=O)N3Cc5ccccc5C[C@H]3C)CN(C(=O)Cc3ccc(F)cc3)CC4)n(C)c2C)c2ccc(O)cc2)cc(C#N)n1C [Example 5, N-(5-cyano-1,2-dimethyl-1H-pyrrol-3-yl)-5-{2-[2-(4-fluorophenyl)acetyl]-7-[(3R)-3-methyl-1,2,3,4-tetrahydroisoquinoline-2-carbonyl]-1,2,3,4-tetrahydroisoquinolin-6-yl}-N-(4-hydroxyphenyl)-1,2-dimethyl-1H-pyrrole-3-carboxamide] | 0.0057 µM | 4.98 | 0.0285 µM |
| 0.14 nM | 2.6 nM | 5.7 | 0.8 nM | 0.88 nM |  |  | COc1cccc(CC(=O)N2CCc3cc(-c4cc(C(=O)N(c5ccc(O)cc5)c5cc(C#N)n(C)c5C)c(C)n4C)c(C(=O)N4Cc5ccccc5C[C@H]4C)cc3C2)c1 [Example 7, N-(5-cyano-1,2-dimethyl-1H-pyrrol-3-yl)-N-(4-hydroxyphenyl)-5-{2-[2-(3-methoxyphenyl)acetyl]-7-[(3R)-3-methyl-1,2,3,4-tetrahydroisoquinoline-2-carbonyl]-1,2,3,4-tetrahydroisoquinolin-6-yl}-1,2-dimethyl-1H-pyrrole-3-carboxamide] | 0.0058 µM | 12.2 | 0.0713 µM |
| 0.48 nM | 17.9 nM | 5.8 | 2.8 nM | 1.27 nM |  |  | Cc1cc(O)ccc1N(C(=O)c1cc(-c2cc3c(cc2C(=O)N2Cc4ccccc4C[C@H]2C)CN(C(=O)Cc2ccccc2)CC3)n(C)c1C)c1cc(C#N)n(C)c1C [Example 9, N-(5-cyano-1,2-dimethyl-1H-pyrrol-3-yl)-N-(4-hydroxy-2-methylphenyl)-1,2-dimethyl-5-{7-[(3R)-3-methyl-1,2,3,4-tetrahydroisoquinoline-2-carbonyl]-2-(2-phenylacetyl)-1,2,3,4-tetrahydroisoquinolin-6-yl}-1H-pyrrole-3-carboxamide] | 0.0254 µM | 7.01 | 0.178 µM |
